Test results reported in PubChem BioAssay (NCI).
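The compound was tested at five concentrations on cells cultured in 96-well plates, with a 48-hour exposure period. TGI is the concentration that stops growth completely.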

How the values were obtained:
Assay in all cases: NCI-60 cell line screen, 48 h
LOX IMVI melanoma = tested on: LOX IMVI melanoma
MDA-N = tested on: MDA-N
MDA-MB-231 breast = tested on: MDA-MB-231 breast
HT29 colon = tested on: HT29 colon
SF-295 CNS = tested on: SF-295 CNS
COLO 205 colon = tested on: COLO 205 colon
NCI-H226 lung = tested on: NCI-H226 lung
UO-31 renal = tested on: UO-31 renal
SK-MEL-2 melanoma = tested on: SK-MEL-2 melanoma
ACHN renal = tested on: ACHN renal

Compound	TGI (LOX IMVI melanoma) [µM]	TGI (MDA-N) [µM]	TGI (MDA-MB-231 breast) [µM]	TGI (HT29 colon) [µM]	TGI (SF-295 CNS) [µM]	TGI (COLO 205 colon) [µM]	TGI (NCI-H226 lung) [µM]	TGI (UO-31 renal) [µM]	TGI (SK-MEL-2 melanoma) [µM]	TGI (ACHN renal) [µM]
CC1(C)[C@H]2CC[C@]1(C)[C@H](OC(=O)NNC(=O)O[C@@H]1C[C@@H]3CC[C@@]1(C)C3(C)C)C2	> 100	24.8	27.6	20.9	28.8	25.6	34.1	29.2	32.5	36.7
O=c1oc2ccccc2cc1-c1cn2cc(Cl)ccc2n1	18.7	0.428	23.1	> 59.8	5.36	> 50.3	> 57.3	6.79	24.9	3.31
CCN(C(=S)N[C@H](C(=O)N[C@@H](C)C(=O)OC)C(C)C)c1ccccc1	> 100	> 100	> 100	> 100	> 100	> 100	> 100	> 100	> 100	> 100
COc1ccc2nc3cc([N+](=O)[O-])ccc3c(Nc3ccc(S(=O)(=O)NC(C)=O)cc3)c2c1	> 100	> 100	> 100	> 100	> 100	> 100	> 100	> 100	> 100	> 100
CCN(CC)c1ccc2cc(C(=O)Nc3cccc4ccccc34)c(=N)oc2c1	> 100	> 100	> 100	> 100	> 100	> 100	> 100	> 100	> 100	> 100
COc1ccc2c(c1)c(CC(=O)O)c(C)n2C(=O)c1ccc(Cl)cc1	> 100	> 100	> 100	> 100	> 100	> 100	> 100	> 100	> 100	> 100
O=C(OCCN=c1c2ccccc2ccc2ccccc12)c1ccc([N+](=O)[O-])cc1	> 100	> 100	> 100	> 100	> 100	> 100	> 100	> 100	> 100	> 100
C[C@H]1C[C@H]2[C@@H]3C(C)(C)O[C@]4(O)C(=O)[C@]5(O)[C@@H](C)CC[C@H]1[C@]25C(=O)[C@]34C	> 100	> 100	> 100	70.3	77.5	38.6	98.2	> 100	84.3	72.6
O=C(O)c1ccn(-c2cccc(-n3ccc(C(=O)O)n3)n2)n1	> 100	> 100	> 100	> 100	> 100	> 100	> 100	> 100	> 100	> 100
COC(=O)c1c(O)ccc2c1c1c(n2Cc2cccc(C)c2)C(=O)c2ccccc2C1=O	26.6	33.7	35.3	14	30.2	3.04	38.8	19.8	27.4	24.5
Nc1ncnc2c1nnn2C1CCC(CP(=O)(O)O)C1 (stereo not given)	> 100	> 100	> 100	> 100	> 100	> 100	> 100	> 100	> 100	> 100
O=C1/C(=N\S(=O)(=O)c2ccccc2)C([n+]2ccc(Cc3ccccc3)cc2)=C([O-])c2ccccc21	1.83	0.346	9.89	1.49	3.22	1.14	3.73	4.62	3	4.33
COc1c(O)cc(O)c2c(=O)cc(-c3ccccc3)oc12	68.8	> 100	> 100	> 100	> 100	> 100	> 100	6.04	> 100	> 100
CC(=O)c1c(C(F)(F)F)n([O-])c2cc(Cl)c(Cl)cc2[n+]1=O	0.489	2.41	2.99	2.54	2.27	2.11	3.08	1.59	2.72	1.92
O=C(Nc1nc2ccccc2s1)c1cc([N+](=O)[O-])ccc1Cl	13.7	> 31.6	> 100	65.9	> 100	> 100	> 100	> 100	> 100	> 100
CN1CCN(CCCBr)CC1	> 100	> 100	> 100	> 100	> 100	> 100	> 100	> 100	> 100	> 100
CCOc1cc(C2CC(c3ccc(NS(=O)(=O)c4cc([N+](=O)[O-])ccc4C)cc3)=NN2c2ccc([N+](=O)[O-])cc2[N+](=O)[O-])ccc1O (stereo not given)	44.1	39.5	20.6	> 100	41.1	52.4	24	39.8	44.3	21.7
CC1(C)CC(=O)c2c(nc3ccc4ccccc4c3c2-c2ccc(NC(=O)CCCCCCCCC(=O)Nc3ccc(-c4c5c(nc6ccc7ccccc7c46)CC(C)(C)CC5=O)cc3)cc2)C1	> 100	> 100	> 100	> 100	> 100	> 100	> 100	> 100	> 100	> 100
